The target in series [1] is T1, gp41 (HR1 region) in native HIV-1 envelope spikes on HUTIIIB cells (Human immunodeficiency virus type 1 group M subtype B, UniProt P04578, V708A). In kind it is binding, HIV-1 IIIB.
Series [2] deals with T1, gp41 (HR1 region) in native HIV-1 envelope spikes on HUTIIIB cells. As to conditions: for activity in native gp41 assay (words, Table 4 results): reference compounds, flow cytometric- and HCS-based assay. Here is the method: A serial dilution of test compounds, dissolved in DMSO, were diluted in culture medium (RPMI1640 with Ultraglutamin and Hepes w/o phenol red with 10% bovine calf serum (HyClone) and 20 μg/l gentamycin) with a final DMSO concentration of 1% and added to 384 well Cell Carrier plates (Evotec Technologies). Hut-IIIB cells (15000 cells/well) were added to these test plates and incubated for 30 min at room temperature. […] Finally, a solution of DRAQ 5 in PBS (final concentration of 5 μM) was added to the wells. After incubating the plates for 30′ at room temperature, the test plates were measured using the Opera™ confocal microscope high content screening platform (Evotec Technologies). After every addition, mixing of the well content was achieved by placing the 384w plates on a 384w shaker (MixMate, Eppendorf) for 5 seconds at 2000 rpm.
Image acquisition was performed using a 40× water immersion objective and simultaneous excitation of FITC and Draq5 fluorescence with a 488 and a 635 laser. […] Output parameters of the script included among others “mean (number of spots per cell)” and “mean (integrated spot signal)”. […] Furthermore, potential false positive results due to fluorescence or false negative results due to quenching can be assessed by comparing the inhibition curves generated by the two above mentioned output parameters.
(In general: A flow cytometer gives signals particle by particle.)

The mark [3] stands for this setting: small molecules, specificity experiments, flow cytometry, read-out: Native gp41 EC50.
Setting [4] is: optimized protocol, […] C34-FITC, 75000 cells/well, compound added before sCD4, 3 independent experiments, read-out: EC50 flow cytometry.

One may read the EC50 as the concentration giving half of the maximal effect.

Each structure is given as a SMILES string. Read-outs that look alike come from different tables or passages of the source.

On to `O=C(O)C1=CC(=C(c2ccc(O)c(C(=O)O)c2)c2ccc(O)c(C(=O)O)c2)C=CC1=O` [ATA], for which, in series [1] (small molecules, specificity experiments), the “inhibition of C34-FITC binding” value is listed as “about 40%”. Besides, in series [1] (setting [3]), the EC50 was over 200 µM.
`Cc1cn([C@H]2C[C@H](N=[N+]=[N-])[C@@H](CO)O2)c(=O)[nH]c1=O` [AZT]: in series [1] (setting [3]), the EC50 is over 200 µM.
As to `COc1ccnc2[nH]cc(C(=O)C(=O)N3CCN(C(=O)c4ccccc4)C[C@H]3C)c12` [BMS-806], the EC50 in series [1] (setting [4]) was 0.013 µM; in series [1] (setting [3]), over 200 µM; in series [2] (read-out: EC50 HCS, mean number of spots per cell, 0.5 nM C34-FITC, compound added before sCD4, 3 independent experiments), 0.0043 µM. Moreover, the “difference between addition of compound before, after or together with sCD4 induction” value in series [1] (three orders of addition, FIG. 1) is “large increase of sensitivity when the compound was added before or together with sCD4”. Further, the “activity in native gp41 assay (words, Table 4 results)” value in series [2] is recorded as “active”.
Take `O=C1Nc2ccc(Cl)cc2[C@@](C#CC2CC2)(C(F)(F)F)O1` [EFV]: the EC50 in series [1] (setting [4]) and in series [1] (setting [3]) was over 200 µM each time. The “cytotoxicity in HCS native gp41 assay” value in series [2] (Hut-IIIB cells, 200 μM) is “cytotoxicity”. Moreover, the “activity in native gp41 assay (words, Table 4 results)” value in series [2] is “no activity”.
On to `O=C(NCc1ccc(F)cc1)c1nc(N2CCCCS2(=O)=O)c2cccnc2c1O` [L870,810], for which the EC50 in series [1] (setting [3]) was over 200 µM.
On the same count and under the same terms, then `CC(C)(C)NC(=O)[C@@H]1C[C@@H]2CCCC[C@@H]2CN1C[C@@H](O)[C@H](Cc1ccccc1)NC(=O)[C@H](CC(N)=O)NC(=O)c1ccc2ccccc2n1` [SQV], with over 200 µM.
